Here are results for seven compounds from patent publication US8119681B2, “2-[1-phenyl-5-hydroxy or methoxy-4alpha-methyl-hexahydrocyclopenta [ƒ]indazole-5-YL]ethyl phenyl derivatives as glucocorticoid receptor ligands” (Merck Sharp & Dohme Corp., priority 2006, dated 2012).

In experiment [1] the target is T1, human GR (Homo sapiens, UniProt P04150).
T1 sequence (P04150 1-777): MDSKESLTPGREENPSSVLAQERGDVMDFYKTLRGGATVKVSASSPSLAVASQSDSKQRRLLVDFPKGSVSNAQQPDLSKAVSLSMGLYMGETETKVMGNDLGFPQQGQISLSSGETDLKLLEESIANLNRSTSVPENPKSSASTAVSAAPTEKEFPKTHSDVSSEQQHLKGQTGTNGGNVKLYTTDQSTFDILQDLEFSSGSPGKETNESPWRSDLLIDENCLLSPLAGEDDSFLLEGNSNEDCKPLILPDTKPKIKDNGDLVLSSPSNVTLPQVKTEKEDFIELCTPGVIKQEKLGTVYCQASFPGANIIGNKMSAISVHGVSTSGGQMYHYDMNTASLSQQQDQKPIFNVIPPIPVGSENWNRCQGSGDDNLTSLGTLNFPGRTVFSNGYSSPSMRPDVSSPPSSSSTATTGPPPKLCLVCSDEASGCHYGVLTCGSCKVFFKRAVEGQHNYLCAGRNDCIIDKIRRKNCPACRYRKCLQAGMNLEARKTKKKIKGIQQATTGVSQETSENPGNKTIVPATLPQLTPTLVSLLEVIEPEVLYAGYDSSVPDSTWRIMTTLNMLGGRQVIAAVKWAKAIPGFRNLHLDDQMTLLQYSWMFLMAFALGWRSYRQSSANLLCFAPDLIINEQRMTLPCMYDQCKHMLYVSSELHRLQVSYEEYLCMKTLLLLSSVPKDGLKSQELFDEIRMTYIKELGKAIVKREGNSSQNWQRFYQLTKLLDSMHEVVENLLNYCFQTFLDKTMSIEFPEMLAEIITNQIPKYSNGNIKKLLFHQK
The experiment can be described thus: Trans-Activation Modulation of Glucocorticoid Receptor (GRAMMER), MMTV-LUC reporter gene. It counts as cell-based. The note with it: for Emax: A549, read-out: Transactivation A549 Cells GRAMMER Emax (%); for EC50: Table 1, A549 cells, IP = inflection point, read-out: Transactivation A549 Cells GRAMMER IP. Also noted: endogenous in cells.

Experiment [2] deals with T1, human GR. Briefly: Transrepression Assay (GITAR), TNFα-β-lactamase reporter gene in U937 cells. Type of experiment: cell-based. Also noted: U937 cells contain an endogenous glucocorticoid receptor (GR); endogenous in cells; host or cells: U937 cells stably transfected with the TNF-α promoter/β-lactamase reporter only. To be noted: for EC50: IP = inflection point, read-out: Transrepression U937 Cells GITAR IP; for GITAR > GRAMM % SEP: separation of GITAR Emax over GRAMMER Emax; for Emax: U-937. Summed up: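 Reporter readout used CCF2-AM loading for 70–90 min at room temperature after overnight (~18 h, 37 °C) PMA (5 ng/ml final) and LPS (100 ng/ml final) stimulation of compound-treated (30–45 min) TNFα-β-lactamase U937 cells expressing native GR. Activity was normalised to 100 nM dexamethasone repression.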
(In a reporter assay the amount or activity of a reporter protein is the signal.)

Setting [3] is: 100 nM dexamethasone = 100% activity, read-out: maximal activity in the transrepression assay.
[4] abbreviates: Table 1, U937 cells, activity repressed by 100 nM dexamethasone = 100%, read-out: Transrepression U937 Cells GITAR Emax (%).

With `C[C@]12Cc3cnn(-c4ccc(F)c(F)c4)c3C=C1CC[C@@]2(O)CCc1ccccc1C(N)=O` [Example 172, 2-{2-[(4αS,5R)-1-(3,4-difluorophenyl)-5-hydroxy-4α-methyl-1,4,4α,5,6,7-hexahydrocyclopenta[f]indazol-5-yl]ethyl}benzamide], the Emax is 41% in experiment [1], 5 to 100% in experiment [2] (setting [3]) and 78% in experiment [2] (setting [4]). Besides, the EC50 worked out at 162 nM in experiment [1] and 139 nM in experiment [2] (Table 1, U937 cells). Moreover, in experiment [2] (Table 1), the “GITAR > GRAMM % SEP” value stood at 36%.

In the case of `Cc1ccc(C(N)=O)c(CC[C@]2(O)CCC3=Cc4c(cnn4-c4ccc(F)cc4)C[C@@]32C)c1` [Example 174, 2-{2-[(4αS,5R)-1-(4-fluorophenyl)-5-hydroxy-4α-methyl-1,4,4α,5,6,7-hexahydrocyclopenta[f]indazol-5-yl]ethyl}-4-methylbenzamide], the Emax in experiment [1] was 36%; in experiment [2] (setting [3]), 5 to 100%; in experiment [2] (setting [4]), 77%. Also, the EC50 turned out to be 147 nM in experiment [1] and 183 nM in experiment [2] (Table 1, U937 cells). The “GITAR > GRAMM % SEP” value in experiment [2] (Table 1) stood at 41%.

In the case of `C[C@]12Cc3cnn(-c4ccc(Cl)cc4)c3C=C1CC[C@@]2(O)CCc1cccc(F)c1C(N)=O` [Example 185, 2-{2-[(4αS,5R)-1-(4-chlorophenyl)-5-hydroxy-4α-methyl-1,4,4α,5,6,7-hexahydrocyclopenta[f]indazol-5-yl]ethyl}-6-fluorobenzamide], the Emax in experiment [1] was 39%; in experiment [2] (setting [3]), 5 to 100%; in experiment [2] (setting [4]) it was 80%. For the same compound, the EC50 in experiment [1] worked out at 144 nM; in experiment [2] (Table 1, U937 cells), 59 nM. The “GITAR > GRAMM % SEP” value in experiment [2] (Table 1) came to 41%.

On to `COc1cccc(CC[C@]2(O)CCC3=Cc4c(cnn4-c4ccc(F)cc4)C[C@@]32C)c1C(N)=O` [Example 189, 2-{2-[(4αS,5R)-1-(4-fluorophenyl)-5-hydroxy-4α-methyl-1,4,4α,5,6,7-hexahydrocyclopenta[f]indazol-5-yl]ethyl}-6-methoxybenzamide], for which the Emax in experiment [1] was 49%; in experiment [2] (setting [3]), 5 to 100%; in experiment [2] (setting [4]) it was 80%. Also, the EC50 is 28 nM in experiment [1] and 23 nM in experiment [2] (Table 1, U937 cells). Moreover, the “GITAR > GRAMM % SEP” value in experiment [2] (Table 1) was found to be 31%.

Consider `Cc1cccc(CC[C@]2(O)CCC3=Cc4c(cnn4-c4cccc(F)c4)C[C@@]32C)c1C(N)=O` [Example 191, 2-{2-[(4αS,5R)-1-(3-fluorophenyl)-5-hydroxy-4α-methyl-1,4,4α,5,6,7-hexahydrocyclopenta[f]indazol-5-yl]ethyl}-6-methylbenzamide], for which the results for the Emax in experiment [1], in experiment [2] (setting [3]) and in experiment [2] (setting [4]) were 49%, 5 to 100% and 78%, respectively. Besides, the EC50 in experiment [1] was 55 nM; in experiment [2] (Table 1, U937 cells), 33 nM. The “GITAR > GRAMM % SEP” value in experiment [2] (Table 1) is given as 29%.

Turning to `C[C@]12Cc3cnn(-c4ccc(F)cc4)c3C=C1CC[C@@]2(O)CCc1cccc(F)c1CC(N)=O` [Example 194, 2-(2-fluoro-6-{2-[(4αS,5R)-1-(4-fluorophenyl)-5-hydroxy-4α-methyl-1,4,4α,5,6,7-hexahydrocyclopenta[f]indazol-5-yl]ethyl}phenyl)acetamide], the Emax is 38% in experiment [1], 5 to 100% in experiment [2] (setting [3]) and 78% in experiment [2] (setting [4]). Besides, the EC50 in experiment [1] is 99 nM; in experiment [2] (Table 1, U937 cells), 87 nM. Further, the “GITAR > GRAMM % SEP” value in experiment [2] (Table 1) was 41%.

For `C[C@]12Cc3cnn(-c4ccc(F)cc4)c3C=C1CC[C@@]2(O)CCc1cccc(Cl)c1CC(N)=O` [Example 197, 2-(2-chloro-6-{2-[(4αS,5R)-1-(4-fluorophenyl)-5-hydroxy-4α-methyl-1,4,4α,5,6,7-hexahydrocyclopenta[f]indazol-5-yl]ethyl}phenyl)acetamide], the values for the Emax in experiment [1], in experiment [2] (setting [3]) and in experiment [2] (setting [4]) were 46%, 5 to 100% and 67%, respectively. The EC50 in experiment [1] was found to be 249 nM; in experiment [2] (Table 1, U937 cells), 138 nM. Also, in experiment [2] (Table 1), the “GITAR > GRAMM % SEP” value amounted to 21%.
